Laboratory results taken from PMC5591244, “Novel selective, potent naphthyl TRPM8 antagonists identified through a combined ligand- and structure-based virtual screening approach” (Scientific Reports, 2017).
Read-outs that look alike come from different tables or passages of the source.

Experiments:
Type in all cases: cell-based
TRPM8 = biological target: T1, TRPM8 (Homo sapiens, UniProt Q7Z2W7); assay: Calcium mobilization assay (HTS and dose-response) on HEK-293/hTRPM8 cells; conditions: for IC50: calcium mobilization
T1 construct: expressed in transfected cells
Protocol: All experiments were performed on HEK-293/hTRPM8 cells stably transfected with the human TRPM8 gene, except for site-directed mutagenesis analysis, which was performed on transient transfectants. In details, HEK-293 cells (ATCC, Manassas, Virginia) were transfected with the pcDNA3/hTRPM8 vector by electroporation (300 Volts, 950 µF) then selected with medium containing 0,8 mg/ml G418 for 10–15 days. Then the stable transfected pool underwent two rounds of limiting dilutions, in eight 96 well plates at a cell density of 1 cell/well, in order to obtain pure clones. The best responder clone was selected based on its response to 1 mM menthol in calcium mobilization experiments. HEK-293/hTRPM8 cells were maintained in EMEM (Minimum Essential Medium Eagle with Earl’s salts Balanced Salt Solution, LONZA) supplemented with 2 mM Ultraglutamine1 (Lonza), 1% Penicillin/Streptomycin (LONZA), 10% of Fetal Bovine Serum (Euroclone) and 0,4 mg/mL G418 (InvivoGen).
For calcium mobilization assays, cells were seeded at 10,000 cells/well in 384-well plates coated with poly-D-lysine (MATRIX black/clear bottom #4332-CPL, Thermo Scientific, Waltham, MA, USA) in complete medium.Twenty-four hours after seeding, the plates were washed with Tyrode’s buffer with a Bio-Tek-ELx405 Microplate Washer (Merck Millipore; Billerica, MA, USA), and then 10 µl/well of a solution containing the fluorescent Ca^2+ indicator Fluo-4 NW dye was added. Cells were incubated for 1 h at room temperature before test compounds were added at 3X the concentration with respect to the final wanted concentration to be tested with a FLIPR TETRA system (Molecular Devices, Sunnyvale, CA, USA). Calcium mobilization was monitored over a period of 5 min. A second injection of 10 µl/well of a reference agonist (icilin or Cooling agent 10) at 4X concentration in assay buffer was performed using the FLIPR TETRA system. Of note, for selectivity assays, the following agonists were used: 10 μM AITC (allyl isothiocyanate) for TRPA1; 100 nM Capsaicin for TRPV1; and 20 nM GSK1016790A for TRPV4.
After addition of the agonist, the fluorescence signal was recorded over the next 3 min. The bioactivity exerted by the compounds was expressed as a percentage of inhibition. The percentage scale is defined as follows: 100% inhibition was considered as the relative fluorescence units (RFUs) of the value of the MIN controls in the second injection (antagonist Capsazepine at IC100 = 50 µM) and 0% inhibition was considered as the RFU values of the value of the MAX controls in the second injection (Cooling agent 10 at EC80 = 30 µM). Data from four replicates were analyzed using GraphPad PRISM® software (version 5, GraphPad Software Inc.) to calculate the mean and standard error of the mean, to create sigmoidal concentration-response curves and to calculate IC50 values.

TRPM8 I746A = biological target: T2, TRPM8 I746A (Homo sapiens, UniProt Q7Z2W7, I746A); assay: Calcium mobilization on transiently transfected TRPM8 I746A mutant; conditions: icilin at EC80, I746A; read-out: pIC50, inhibition of icilin activation, I746A (converted)
T2 construct: expressed in transfected cells; host or cells: HEK-293, transient (Lipofectamine 2000)
Excerpt: Single point mutations were introduced in the hTRPM8-coding sequence, and the mutated TRPM8 was cloned as N-terminal c-myc tagged version into the pcDNA3 expression vector. This was done in that way that the single variations could be easily swapped from the myc-tagged expression construct into the non-tagged TRPM8 wild type expression construct.
The list of the variants is the following: variant 1, t2233g, a2234c (=Y745A); variant 2, a2236g, t2237c (=I746A); variant 3, a2395g, a2396c (=N799A) and variant 4, a2405c (D802A). The cloning project comprised three steps. First of all, a unique XhoI restriction site was inserted by site-directed mutagenesis (SDM) using DNA of the pcDNA3_TRPM8 construct as template. The 0.6 kb DNA fragment between the unique 5′ XhoI (introduced) and 3′ BamHI (already present) restriction sites comprised all positions of the four single point mutations and could be later used for their insertion as well as swapping between myc-tagged and non-tagged TRPM8 versions. In a second step, the c-myc tag sequence was introduced embedded within the TRPM8 coding sequence by PCR primers in two partially overlapping PCRs that were then joined by bridge PCR with the external 5′KpnI and internal 3′EcoRI primers and in the last step the point mutations 1 to 4 were inserted into pcDNA3_c-myc-TRPM8 by exchanging the wild type 5′XhoI-3′BamHI fragment (0.6 kb) with each of the corresponding variation fragment derived from synthetic DNA (provided by GeneArt, ThermoFisher Scientific).The myc-tagged constructs were transiently transfected in HEK-293 cells with Lipofectamine 2000 (Invitrogen) according to the manufacturer’s protocol. The pcDNA vectors containing the wt myc-tagged TRPM8 gene and the empty pcDNA3 (mock) were separately transfected into HEK-293 cells as controls. Cells were transfected and seeded on the same day at 17,500 cells/well in poly-D-lysine-coated 384-well plates (MATRIX #4332-CPL). Twenty-four hours after seeding, the activity of transfected TRPM8 receptors was tested using the calcium mobilization assay as described above. The analysis was performed on the basis of ΔF/F° (normalized MAX-MIN), where ΔF is the MAX between time points 117 and 182 minus the MIN between time points TP114 and TP116, and F° is the basal signal at time point TP0. The obtained data from at least four wells (as replicates) were analyzed with GraphPad PRISM® software (version 5, GraphPad Software Inc.) to calculate the mean and standard error of the mean[58], to create sigmoidal concentration-response curves and to calculate IC50 values.

TRPV3 = assay: Selectivity, TRPV3 as named in the discussion

T1 sequence (Q7Z2W7 whole entry): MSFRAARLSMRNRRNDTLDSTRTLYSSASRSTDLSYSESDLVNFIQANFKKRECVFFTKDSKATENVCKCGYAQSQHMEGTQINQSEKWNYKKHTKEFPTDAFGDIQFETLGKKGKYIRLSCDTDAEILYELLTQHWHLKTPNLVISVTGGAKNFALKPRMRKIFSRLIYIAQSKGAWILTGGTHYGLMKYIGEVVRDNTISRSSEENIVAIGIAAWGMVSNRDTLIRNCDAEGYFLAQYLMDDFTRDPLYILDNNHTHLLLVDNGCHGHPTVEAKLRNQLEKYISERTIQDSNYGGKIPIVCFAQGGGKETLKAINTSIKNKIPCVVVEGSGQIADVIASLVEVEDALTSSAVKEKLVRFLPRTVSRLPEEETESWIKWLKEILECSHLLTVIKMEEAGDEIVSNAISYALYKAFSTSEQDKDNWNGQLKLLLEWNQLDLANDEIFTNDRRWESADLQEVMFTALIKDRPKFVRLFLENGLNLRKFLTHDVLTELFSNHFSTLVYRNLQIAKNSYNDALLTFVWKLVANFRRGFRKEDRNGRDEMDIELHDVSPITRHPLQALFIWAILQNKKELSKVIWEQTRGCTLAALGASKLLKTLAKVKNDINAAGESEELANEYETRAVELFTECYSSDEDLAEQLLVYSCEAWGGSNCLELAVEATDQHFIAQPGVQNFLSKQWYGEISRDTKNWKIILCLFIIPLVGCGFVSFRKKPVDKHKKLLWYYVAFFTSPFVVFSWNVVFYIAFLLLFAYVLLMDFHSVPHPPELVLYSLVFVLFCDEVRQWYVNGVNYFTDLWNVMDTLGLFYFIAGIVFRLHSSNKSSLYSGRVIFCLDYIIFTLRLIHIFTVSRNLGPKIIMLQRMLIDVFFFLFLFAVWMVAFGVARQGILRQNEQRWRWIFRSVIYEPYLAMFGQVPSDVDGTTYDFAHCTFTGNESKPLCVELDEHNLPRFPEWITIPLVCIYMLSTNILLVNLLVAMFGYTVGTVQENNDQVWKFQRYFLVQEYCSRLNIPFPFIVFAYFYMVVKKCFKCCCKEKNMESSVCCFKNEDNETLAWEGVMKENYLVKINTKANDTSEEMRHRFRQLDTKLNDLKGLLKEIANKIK
T2 sequence (Q7Z2W7 whole entry I746A): as the sequence (Q7Z2W7 whole entry) above, with I746A counted along it

pIC50 (TRPM8; HTS campaign activity determination, Fig. 4): 7.15 | IC50 (TRPM8; agonist Cooling agent 10, read-out: pIC50 with Cooling agent 10 (converted)): 41.7 nM | IC50 (TRPM8; agonist icilin, read-out: pIC50 with icilin (converted)): 58.9 nM | IC50 (TRPM8 I746A): 20 nM
SMILES: Clc1c(OCCNCc2ccco2)ccc2ccccc12 [Compound 1]
Effect on inhibition of TRPV3 (TRPV3): didn’t have any effect
